We go through 13 compounds from patent US20260070945A1, “MACROCYCLIC IMMUNOMODULATORS” (Bristol-Myers Squibb Company, priority 2022, published 2026).

*1 amine or outer side, *2 acyl side, *3 side chain or, on linkers, in order; H or OH if unused. Where a SMILES comes first, the peptide text is derived from it. Bridges are numbered along the chain shown (N, C = ends). [ ]: non-standard residue; d: D form. The star is where a group is joined. X8 = O=C(O)COc1ccc(C[C@H](N[*:1])C(=O)[*:2])cn1; Phe(4-COOH) = N[C@@H](Cc1ccc(C(=O)O)cc1)C(=O)O; Bip = N[C@@H](Cc1ccc(-c2ccccc2)cc1)C(=O)O; 4Pal = N[C@@H](Cc1ccncc1)C(=O)O; Cha = N[C@@H](CC1CCCCC1)C(=O)O; Carboxymethyl = O=C(O)C*; NMeA = CN[C@@H](C)C(=O)O; Orn = NCCC[C@H](N)C(=O)O; Aun = NCCCCCCCCCCC(=O)O; Dab = NCC[C@H](N)C(=O)O

The target in this test is T1, PD-1/PD-L1 interaction (PE-labeled human PD-L1-Ig binding to Jurkat cell line over-expressing human PD-1) (Homo sapiens, UniProt Q15116).
T1 construct: expressed in transfected cells; host or cells: Jurkat
T1 sequence (Q15116 25-288): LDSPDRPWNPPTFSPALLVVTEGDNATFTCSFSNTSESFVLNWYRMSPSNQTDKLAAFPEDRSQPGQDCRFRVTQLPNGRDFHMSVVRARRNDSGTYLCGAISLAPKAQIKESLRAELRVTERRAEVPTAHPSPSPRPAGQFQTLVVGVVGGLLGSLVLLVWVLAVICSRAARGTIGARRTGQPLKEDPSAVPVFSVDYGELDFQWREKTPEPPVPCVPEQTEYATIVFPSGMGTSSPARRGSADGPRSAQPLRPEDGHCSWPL
The test is described as follows: Jurkat-PD-1 Cell Binding High-Content Screening Assay (CBA). The following applies: Jurkat-hPD-1 cells, PE-labeled PD-L1-Ig 20 nM final; read-out: Jurkat HPD1 PDL1 IC50. Put shortly: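 Read-out: high-content imaging of cell-bound PE fluorescence, with Hoechst 33342 nuclear counterstain after paraformaldehyde fixation. Before labeled ligand (20 nM final, 1 h) was added, compound sat on the cells for 2 h at 37 °C in DMEM/10% FCS.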
`CC(C)C[C@@H]1NC(=O)[C@H](Cc2c[nH]c3ccccc23)NC(=O)[C@H](CC(=O)O)NC(=O)[C@H](Cc2ccncc2)NC(=O)[C@H](Cc2ccc(OCC(=O)O)cc2)NC(=O)CSC[C@@H](C(=O)N[C@@H](CCN)C(=O)NCCCCCCCCCCC(=O)O)NC(=O)[C@H](CCC(=O)O)NC(=O)[C@H](C(C)C)NC(=O)[C@H](CC2CCCCC2)NC(=O)[C@H](CCN)NC(=O)[C@@H](CC(C)C)NC(=O)[C@H](C)N(C)C(=O)[C@H](C(C)C)NC(=O)[C@H](Cc2ccc(-c3ccccc3)cc2)NC1=O` [Example 1330] ({CH2CO}-Y(Carboxymethyl)[4Pal]DWL[Bip]V[NMeA][dL][Dab][Cha]VEC[Dab][Aun]-OH; thioether N-14): the IC50 amounted to 14.1 nM.
On to `CC(C)C[C@@H]1NC(=O)[C@H](Cc2c[nH]c3ccccc23)NC(=O)[C@H](CC(=O)O)NC(=O)[C@H](Cc2ccncc2)NC(=O)[C@H](Cc2ccc(OCC(=O)O)cc2)NC(=O)CSC[C@@H](C(=O)N[C@@H](CCCN)C(=O)NCCCCCCCCCCC(=O)O)NC(=O)[C@H]([C@@H](C)O)NC(=O)[C@H](C(C)C)NC(=O)[C@H](CC2CCCCC2)NC(=O)[C@H](CCN)NC(=O)[C@@H](CC(C)C)NC(=O)[C@H](C)N(C)C(=O)[C@H](C(C)C)NC(=O)[C@H](Cc2ccc(-c3ccccc3)cc2)NC1=O` [Example 1331] ({CH2CO}-Y(Carboxymethyl)[4Pal]DWL[Bip]V[NMeA][dL][Dab][Cha]VTC[Orn][Aun]-OH; thioether N-14), for which the IC50 was 12.3 nM.
On to `CC(C)C[C@@H]1NC(=O)[C@H](Cc2c[nH]c3ccccc23)NC(=O)[C@H](CC(=O)O)NC(=O)[C@H](Cc2ccncc2)NC(=O)[C@H](Cc2ccc(OCC(=O)O)cc2)NC(=O)CSC[C@@H](C(=O)N[C@@H](CCCN)C(=O)NCCCCCCCCCCC(=O)O)NC(=O)[C@H](CCC(=O)O)NC(=O)[C@H](C(C)C)NC(=O)[C@H](CC2CCCCC2)NC(=O)[C@H](CCN)NC(=O)[C@@H](CC(C)C)NC(=O)[C@H](C)N(C)C(=O)[C@H](C(C)C)NC(=O)[C@H](Cc2ccc(-c3ccccc3)cc2)NC1=O` [Example 1332] ({CH2CO}-Y(Carboxymethyl)[4Pal]DWL[Bip]V[NMeA][dL][Dab][Cha]VEC[Orn][Aun]-OH; thioether N-14), for which the IC50 was 14.5 nM.
As to `CC(C)C[C@@H]1NC(=O)[C@H](Cc2c[nH]c3ccccc23)NC(=O)[C@H](CC(=O)O)NC(=O)[C@H](Cc2ccc(OCC(=O)O)cc2)NC(=O)[C@H](Cc2ccccc2)NC(=O)CSC[C@@H](C(=O)N[C@@H](CCN)C(=O)NCCCCCCCCCCC(=O)O)NC(=O)[C@H]([C@@H](C)O)NC(=O)[C@H](C(C)C)NC(=O)[C@H](CC(C)C)NC(=O)[C@H](CC(N)=O)NC(=O)[C@@H](CC(C)C)NC(=O)[C@H](C)N(C)C(=O)[C@H](C(C)C)NC(=O)[C@H](Cc2ccc(-c3ccccc3)cc2)NC1=O` [Example 1333] ({CH2CO}-FY(Carboxymethyl)DWL[Bip]V[NMeA][dL]NLVTC[Dab][Aun]-OH; thioether N-14), the IC50 turned out to be 67.3 nM.
As for `CC(C)C[C@@H]1NC(=O)[C@H](Cc2c[nH]c3ccccc23)NC(=O)[C@H](CC(=O)O)NC(=O)[C@H](Cc2ccc(OCC(=O)O)cc2)NC(=O)[C@H](Cc2ccccc2)NC(=O)CSC[C@@H](C(=O)N[C@@H](CCN)C(=O)NCCCCCCCCCCC(=O)O)NC(=O)[C@H](CCC(=O)O)NC(=O)[C@H](C(C)C)NC(=O)[C@H](CC(C)C)NC(=O)[C@H](CC(N)=O)NC(=O)[C@@H](CC(C)C)NC(=O)[C@H](C)N(C)C(=O)[C@H](C(C)C)NC(=O)[C@H](Cc2ccc(-c3ccccc3)cc2)NC1=O` [Example 1334] ({CH2CO}-FY(Carboxymethyl)DWL[Bip]V[NMeA][dL]NLVEC[Dab][Aun]-OH; thioether N-14), the IC50 was 117 nM.
Take `CC(C)C[C@@H]1NC(=O)[C@H](Cc2c[nH]c3ccccc23)NC(=O)[C@H](CC(=O)O)NC(=O)[C@H](Cc2ccc(OCC(=O)O)cc2)NC(=O)[C@H](Cc2ccccc2)NC(=O)CSC[C@@H](C(=O)N[C@@H](CCCN)C(=O)NCCCCCCCCCCC(=O)O)NC(=O)[C@H]([C@@H](C)O)NC(=O)[C@H](C(C)C)NC(=O)[C@H](CC(C)C)NC(=O)[C@H](CC(N)=O)NC(=O)[C@@H](CC(C)C)NC(=O)[C@H](C)N(C)C(=O)[C@H](C(C)C)NC(=O)[C@H](Cc2ccc(-c3ccccc3)cc2)NC1=O` [Example 1335] ({CH2CO}-FY(Carboxymethyl)DWL[Bip]V[NMeA][dL]NLVTC[Orn][Aun]-OH; thioether N-14): the IC50 was found to be 59 nM.
For the compound `CC(C)C[C@@H]1NC(=O)[C@H](Cc2c[nH]c3ccccc23)NC(=O)[C@H](CC(=O)O)NC(=O)[C@H](Cc2ccc(OCC(=O)O)cc2)NC(=O)[C@H](Cc2ccccc2)NC(=O)CSC[C@@H](C(=O)N[C@@H](CCCN)C(=O)NCCCCCCCCCCC(=O)O)NC(=O)[C@H](CCC(=O)O)NC(=O)[C@H](C(C)C)NC(=O)[C@H](CC(C)C)NC(=O)[C@H](CC(N)=O)NC(=O)[C@@H](CC(C)C)NC(=O)[C@H](C)N(C)C(=O)[C@H](C(C)C)NC(=O)[C@H](Cc2ccc(-c3ccccc3)cc2)NC1=O` [Example 1336] ({CH2CO}-FY(Carboxymethyl)DWL[Bip]V[NMeA][dL]NLVEC[Orn][Aun]-OH; thioether N-14), the IC50 was 198 nM.
Consider `CC(C)C[C@@H]1NC(=O)[C@H](Cc2c[nH]c3ccccc23)NC(=O)[C@H](CC(=O)O)NC(=O)[C@H](Cc2ccc(C(=O)O)cc2)NC(=O)[C@H](Cc2ccc(OCC(=O)O)cc2)NC(=O)CSC[C@@H](C(=O)N[C@@H](CCN)C(=O)NCCCCCCCCCCC(=O)O)NC(=O)[C@H](CCC(N)=O)NC(=O)[C@H](C(C)C)NC(=O)[C@H](CC2CCCCC2)NC(=O)[C@H](CCN)NC(=O)[C@@H](CC(C)C)NC(=O)[C@H](C)N(C)C(=O)[C@H](C(C)C)NC(=O)[C@H](Cc2ccc(-c3ccccc3)cc2)NC1=O` [Example 1337] ({CH2CO}-Y(Carboxymethyl)[Phe(4-COOH)]DWL[Bip]V[NMeA][dL][Dab][Cha]VQC[Dab][Aun]-OH; thioether N-14), for which the IC50 was found to be 9.9 nM.
Take `CC(C)C[C@@H]1NC(=O)[C@H](Cc2c[nH]c3ccccc23)NC(=O)[C@H](CC(=O)O)NC(=O)[C@H](Cc2ccc(C(=O)O)cc2)NC(=O)[C@H](Cc2ccc(OCC(=O)O)cc2)NC(=O)CSC[C@@H](C(=O)N[C@@H](CCN)C(=O)NCCCCCCCCCCC(=O)O)NC(=O)[C@@H](CCC(N)=O)NC(=O)[C@H](C(C)C)NC(=O)[C@H](CC2CCCCC2)NC(=O)[C@H](CCN)NC(=O)[C@@H](CC(C)C)NC(=O)[C@H](C)N(C)C(=O)[C@H](C(C)C)NC(=O)[C@H](Cc2ccc(-c3ccccc3)cc2)NC1=O` [Example 1339] ({CH2CO}-Y(Carboxymethyl)[Phe(4-COOH)]DWL[Bip]V[NMeA][dL][Dab][Cha]V[dQ]C[Dab][Aun]-OH; thioether N-14): the IC50 is 28 nM.
With `CC(C)C[C@@H]1NC(=O)[C@H](Cc2c[nH]c3ccccc23)NC(=O)[C@H](CC(=O)O)NC(=O)[C@H](Cc2ccncc2)NC(=O)[C@H](Cc2ccc(OCC(=O)O)cc2)NC(=O)CSC[C@@H](C(=O)N[C@@H](CCN)C(=O)NCCCCCCCCCCC(=O)O)NC(=O)[C@H](CCC(N)=O)NC(=O)[C@H](C(C)C)NC(=O)[C@H](CC2CCCCC2)NC(=O)[C@H](CCN)NC(=O)[C@@H](CC(C)C)NC(=O)[C@H](C)N(C)C(=O)[C@H](C(C)C)NC(=O)[C@H](Cc2ccc(-c3ccccc3)cc2)NC1=O` [Example 1341] ({CH2CO}-Y(Carboxymethyl)[4Pal]DWL[Bip]V[NMeA][dL][Dab][Cha]VQC[Dab][Aun]-OH; thioether N-14) the figure was 9.1 nM.
`CC(C)C[C@@H]1NC(=O)[C@H](Cc2c[nH]c3ccccc23)NC(=O)[C@H](CC(=O)O)NC(=O)[C@H](Cc2ccncc2)NC(=O)[C@H](Cc2ccc(OCC(=O)O)cc2)NC(=O)CSC[C@@H](C(=O)N[C@@H](CCCN)C(=O)NCCCCCCCCCCC(=O)O)NC(=O)[C@H](CCC(N)=O)NC(=O)[C@H](C(C)C)NC(=O)[C@H](CC2CCCCC2)NC(=O)[C@H](CCN)NC(=O)[C@@H](CC(C)C)NC(=O)[C@H](C)N(C)C(=O)[C@H](C(C)C)NC(=O)[C@H](Cc2ccc(-c3ccccc3)cc2)NC1=O` [Example 1342] ({CH2CO}-Y(Carboxymethyl)[4Pal]DWL[Bip]V[NMeA][dL][Dab][Cha]VQC[Orn][Aun]-OH; thioether N-14): the IC50 is 18 nM.
Regarding `CC(C)C[C@@H]1NC(=O)[C@H](Cc2c[nH]c3ccccc23)NC(=O)[C@H](CC(=O)O)NC(=O)[C@H](Cc2ccncc2)NC(=O)[C@H](Cc2ccc(OCC(=O)O)nc2)NC(=O)CSC[C@@H](C(=O)N[C@@H](CCN)C(=O)NCCCCCCCCCCC(=O)O)NC(=O)[C@H](CCC(N)=O)NC(=O)[C@H](C(C)C)NC(=O)[C@H](CC2CCCCC2)NC(=O)[C@H](CCN)NC(=O)[C@@H](CC(C)C)NC(=O)[C@H](C)N(C)C(=O)[C@H](C(C)C)NC(=O)[C@H](Cc2ccc(-c3ccccc3)cc2)NC1=O` [Example 1343] ({CH2CO}-[X8][4Pal]DWL[Bip]V[NMeA][dL][Dab][Cha]VQC[Dab][Aun]-OH; thioether N-14), the IC50 was found to be 39.2 nM.
On to `CC(C)C[C@@H]1NC(=O)[C@H](Cc2c[nH]c3ccccc23)NC(=O)[C@H](CC(=O)O)NC(=O)[C@H](Cc2ccncc2)NC(=O)[C@H](Cc2ccc(OCC(=O)O)cc2)NC(=O)CSC[C@@H](C(=O)N[C@@H](CCCN)C(=O)NCCCCCCCCCCC(=O)O)NC(=O)[C@@H](CCC(N)=O)NC(=O)[C@H](C(C)C)NC(=O)[C@H](CC2CCCCC2)NC(=O)[C@H](CCN)NC(=O)[C@@H](CC(C)C)NC(=O)[C@H](C)N(C)C(=O)[C@H](C(C)C)NC(=O)[C@H](Cc2ccc(-c3ccccc3)cc2)NC1=O` [Example 1344] ({CH2CO}-Y(Carboxymethyl)[4Pal]DWL[Bip]V[NMeA][dL][Dab][Cha]V[dQ]C[Orn][Aun]-OH; thioether N-14), for which the IC50 was 69.5 nM.
